The results in this text go back to ChEMBL document CHEMBL1154594, “Delta agonist hydroxy bioisosteres: the discovery of 3-((1-benzylpiperidin-4-yl){4-[(diethylamino)carbonyl]phenyl}amino)benzamide with improved delta agonist activity and in vitro metabolic stability” (Bioorg Med Chem Lett, 2009).

Structures are written as SMILES.

Series [1] in a line: Intrinsic clearance in human liver microsomes. The class given is ADME, Microsome. (In general: Liver microsomes are a subcellular fraction often used to study metabolism.)
Series [2] can be described thus: Intrinsic clearance in rat liver microsomes. The class given is ADME, Microsome.

As to `CCN(CC)C(=O)c1ccc(N(c2cccc(C(N)=O)c2)C2CCN(Cc3ccccc3)CC2)cc1`, the intrinsic metabolic clearance (microsomal CLint) (in general, the capacity of the preparation to metabolise the compound, expressed as a volume cleared per time) turned out to be 71 µL/min/mg in series [1] and 62 µL/min/mg in series [2].

In series [1], `CCN(CC)C(=O)c1ccc(N(c2cccc(NS(C)(=O)=O)c2)C2CCN(Cc3ccccc3)CC2)cc1` had an intrinsic metabolic clearance (microsomal CLint) of 96 µL/min/mg.

In the case of `CCN(CC)C(=O)c1ccc(N(c2cccc(O)c2)C2CCN(Cc3ccccc3)CC2)cc1`, the values for the microsomal CLint in series [1] and in series [2] were 286 µL/min/mg and 384 µL/min/mg, respectively.

As for `CCN(CC)C(=O)c1ccc(N(c2cccc(NC(C)=O)c2)C2CCN(Cc3ccccc3)CC2)cc1`, the microsomal CLint in series [1] is 139 µL/min/mg.

In series [1], `CCN(CC)C(=O)c1ccc(N(c2cccc(NC(=O)OC)c2)C2CCN(Cc3ccccc3)CC2)cc1` registered a microsomal CLint of 200 µL/min/mg.
